# Results taken from US20190192699A1, “NUCLEAR IMAGING AND RADIOTHERAPEUTICS AGENTS TARGETING CARBONIC ANHYDRASE IX AND USES THEREOF” (THE JOHNS HOPKINS UNIVERSITY, priority 2016, published 2019).
# Where “and” joins values, the source holds several entries; their conditions need not be identical. Equal values may be shown once.
# Tested on: SK-RC-52 xenografts
# Experiment: Biodistribution of [64Cu]XYIMSR-06
# Type: in vivo, mice
# Procedure: Cell Lines and Mouse Models. Animal experiments were performed in accordance with protocols approved by the Johns Hopkins Animal Care and Use Committee (ACUC). Six-week-old female NOD/SCID mice were purchased from the Animal Resource Core of the Sidney Kimmel Comprehensive Cancer Center of Johns Hopkins and were subcutaneously injected in the lower left flank or upper right flank with 1×10^6 SK-RC-52 cells in RPMI 1640 GlutaMAX™ media (Life Technologies, Frederick, Md.) supplemented with 1% fetal bovine serum (FBS). Mice were monitored for tumor size and used for SPECT/CT imaging when the size of the tumor reached 100 mm^3.
# Biodistribution of [^64Cu]XYIMSR-06. Mice bearing SK-RC-52 xenografts within the upper right flank were injected intravenously with 740 kBq (20 μCi) of [^64Cu]XYIMSR-06 in 200 μL of PBS. For in vivo competition (binding specificity) studies, tumor-bearing mice were injected with 740 kBq (20 μCi) of [^64Cu]XYIMSR-06 and 200 nmole of 1 in 200 μL of PBS concurrently. At specific times after injection (1 h, 4 h, 8 h and 24 h), mice (n=5) were sacrificed by cervical dislocation with blood immediately collected by cardiac puncture. Heart, lungs, pancreas, spleen, fat, brain, muscle, small intestines, liver, stomach, kidney, urinary bladder, and tumor were also collected. Each organ was weighed and the tissue radioactivity was measured with an automated gamma counter (1282 Compugamma CS, Pharmacia/LKBNuclear, Inc., Mt. Waverly, Vic. Australia). The percentage of injected dose per gram of tissue (% ID/g) was calculated by comparison with samples of a standard dilution of the initial dose. All measurements were corrected for radioactive decay. Data were expressed as mean±standard deviation (SD). Prism software (GraphPAD, San Diego, Calif.) was used to determine statistical significance. Statistical significance was calculated using a paired t test. P-values […] were considered significant.
# [1] = 8 h + block (200 nmole of 1 co-injected)
compound,measurement,setting,value
CC(CCC(=O)N[C@@H](CC(=O)N[C@@H](CC(=O)N[C@@H](CCCCn1cc(CCCC(=O)Nc2nnc(S(N)(=O)=O)s2)nn1)C(=O)NCCOCCOCCNC(=S)Nc1ccc(CC2CN(CC(=O)[O-])CCN(CC(=O)[O-])CCN2CC(=O)O)cc1)C(=O)O)C(=O)O)(c1ccc(O)cc1)c1ccc(O)cc1.[64Cu+2] (some centres unmarked) [[^64Cu]XYIMSR-06],Biodistribution: Bladder,1 h post-injection,11.12 ± 6.33 % ID/g
same,Biodistribution: Blood,1 h post-injection,0.66 ± 0.05 % ID/g
same,Biodistribution: Brain,1 h post-injection,1.46 ± 2.23 % ID/g
same,Biodistribution: Fat,1 h post-injection,0.80 ± 0.17 % ID/g
same,Biodistribution: Heart,1 h post-injection,3.41 ± 0.79 % ID/g
same,Biodistribution: Kidney (kid),1 h post-injection,33.65 ± 3.91 % ID/g
same,Biodistribution: Liver,1 h post-injection,3.25 ± 0.97 % ID/g
same,Biodistribution: Lung,1 h post-injection,25.52 ± 3.35 % ID/g
same,Biodistribution: Muscle (mm),1 h post-injection,1.28 ± 0.27 % ID/g
same,Biodistribution: Pancreas,1 h post-injection,2.94 ± 0.24 % ID/g
same,Biodistribution: Sm. intestine,1 h post-injection,7.35 ± 0.78 % ID/g
same,Biodistribution: Spleen,1 h post-injection,0.36 ± 0.08 % ID/g
same,Biodistribution: Stomach,1 h post-injection,14.80 ± 2.27 % ID/g
same,Biodistribution: Tumor,1 h post-injection,14.5 % ID/g and 14.47 ± 2.69 % ID/g
same,Tumor/kid (kidney) ratio,1 h post-injection,0.4 ± 0.1
same,Tumor/mm (muscle) ratio,1 h post-injection,10.8 ± 3.7
same,Biodistribution: Bladder,4 h post-injection,17.05 ± 8.86 % ID/g
same,Biodistribution: Blood,4 h post-injection,0.33 ± 0.06 % ID/g
same,Biodistribution: Brain,4 h post-injection,0.29 ± 0.06 % ID/g
same,Biodistribution: Fat,4 h post-injection,0.52 ± 0.29 % ID/g
same,Biodistribution: Heart,4 h post-injection,1.78 ± 0.33 % ID/g
same,Biodistribution: Kidney (kid),4 h post-injection,19.99 ± 2.88 % ID/g
same,Biodistribution: Liver,4 h post-injection,2.18 ± 0.57 % ID/g
same,Biodistribution: Lung,4 h post-injection,12.03 ± 1.61 % ID/g
same,Biodistribution: Muscle (mm),4 h post-injection,0.70 ± 0.18 % ID/g
same,Biodistribution: Pancreas,4 h post-injection,1.36 ± 0.19 % ID/g
same,Biodistribution: Sm. intestine,4 h post-injection,4.15 ± 0.69 % ID/g
same,Biodistribution: Spleen,4 h post-injection,0.24 ± 0.04 % ID/g
same,Biodistribution: Stomach,4 h post-injection,8.19 ± 0.97 % ID/g
same,Biodistribution: Tumor,4 h post-injection,19.3 % ID/g and 19.31 ± 4.51 % ID/g
same,Tumor/Blood ratio,4 h post-injection,57.7 ± 9.3
same,Tumor/kid (kidney) ratio,4 h post-injection,1.0 ± 0.1
same,Tumor/mm (muscle) ratio,4 h post-injection,29.4 ± 9.9
same,Biodistribution: Bladder,[1],1.45 ± 1.53 % ID/g
same,Biodistribution: Blood,[1],0.08 ± 0.01 % ID/g
same,Biodistribution: Brain,[1],0.04 ± 0.01 % ID/g
same,Biodistribution: Fat,[1],0.05 ± 0.01 % ID/g
same,Biodistribution: Heart,[1],0.16 ± 0.03 % ID/g
same,Biodistribution: Kidney (kid),[1],1.82 ± 0.39 % ID/g
same,Biodistribution: Liver,[1],0.55 ± 0.08 % ID/g
same,Biodistribution: Lung,[1],0.77 ± 0.14 % ID/g
same,Biodistribution: Muscle (mm),[1],0.05 ± 0.02 % ID/g
same,Biodistribution: Pancreas,[1],0.14 ± 0.03 % ID/g
same,Biodistribution: Sm. intestine,[1],0.38 ± 0.06 % ID/g
same,Biodistribution: Spleen,[1],0.14 ± 0.02 % ID/g
same,Biodistribution: Stomach,[1],0.69 ± 0.18 % ID/g
same,Biodistribution: Tumor,[1],2.39 ± 0.24 % ID/g
same,Tumor/Blood ratio,[1],32.0 ± 3.8
same,Tumor/kid (kidney) ratio,[1],1.3 ± 10.2
same,Tumor/mm (muscle) ratio,[1],53.0 ± 12.6
same,Biodistribution: Bladder,8 h post-injection,7.43 ± 7.72 % ID/g
same,Biodistribution: Blood,8 h post-injection,0.13 ± 0.02 % ID/g
same,Biodistribution: Brain,8 h post-injection,0.24 ± 0.06 % ID/g
